Measurements from patent US9212182B2, “Bicyclic sulfonamide compounds as sodium channel inhibitors” (AMGEN INC., priority 2013, dated 2015).

Each molecule was assayed against Nav 1.7 (Homo sapiens (Human), UniProt Q15858) (assay: in-vitro Nav 1.7 PX (IC50)). Conditions: in-vitro Nav 1.7 PX data.
Assay type: cell-based

Nav 1.7, sequence (Q15858 whole entry): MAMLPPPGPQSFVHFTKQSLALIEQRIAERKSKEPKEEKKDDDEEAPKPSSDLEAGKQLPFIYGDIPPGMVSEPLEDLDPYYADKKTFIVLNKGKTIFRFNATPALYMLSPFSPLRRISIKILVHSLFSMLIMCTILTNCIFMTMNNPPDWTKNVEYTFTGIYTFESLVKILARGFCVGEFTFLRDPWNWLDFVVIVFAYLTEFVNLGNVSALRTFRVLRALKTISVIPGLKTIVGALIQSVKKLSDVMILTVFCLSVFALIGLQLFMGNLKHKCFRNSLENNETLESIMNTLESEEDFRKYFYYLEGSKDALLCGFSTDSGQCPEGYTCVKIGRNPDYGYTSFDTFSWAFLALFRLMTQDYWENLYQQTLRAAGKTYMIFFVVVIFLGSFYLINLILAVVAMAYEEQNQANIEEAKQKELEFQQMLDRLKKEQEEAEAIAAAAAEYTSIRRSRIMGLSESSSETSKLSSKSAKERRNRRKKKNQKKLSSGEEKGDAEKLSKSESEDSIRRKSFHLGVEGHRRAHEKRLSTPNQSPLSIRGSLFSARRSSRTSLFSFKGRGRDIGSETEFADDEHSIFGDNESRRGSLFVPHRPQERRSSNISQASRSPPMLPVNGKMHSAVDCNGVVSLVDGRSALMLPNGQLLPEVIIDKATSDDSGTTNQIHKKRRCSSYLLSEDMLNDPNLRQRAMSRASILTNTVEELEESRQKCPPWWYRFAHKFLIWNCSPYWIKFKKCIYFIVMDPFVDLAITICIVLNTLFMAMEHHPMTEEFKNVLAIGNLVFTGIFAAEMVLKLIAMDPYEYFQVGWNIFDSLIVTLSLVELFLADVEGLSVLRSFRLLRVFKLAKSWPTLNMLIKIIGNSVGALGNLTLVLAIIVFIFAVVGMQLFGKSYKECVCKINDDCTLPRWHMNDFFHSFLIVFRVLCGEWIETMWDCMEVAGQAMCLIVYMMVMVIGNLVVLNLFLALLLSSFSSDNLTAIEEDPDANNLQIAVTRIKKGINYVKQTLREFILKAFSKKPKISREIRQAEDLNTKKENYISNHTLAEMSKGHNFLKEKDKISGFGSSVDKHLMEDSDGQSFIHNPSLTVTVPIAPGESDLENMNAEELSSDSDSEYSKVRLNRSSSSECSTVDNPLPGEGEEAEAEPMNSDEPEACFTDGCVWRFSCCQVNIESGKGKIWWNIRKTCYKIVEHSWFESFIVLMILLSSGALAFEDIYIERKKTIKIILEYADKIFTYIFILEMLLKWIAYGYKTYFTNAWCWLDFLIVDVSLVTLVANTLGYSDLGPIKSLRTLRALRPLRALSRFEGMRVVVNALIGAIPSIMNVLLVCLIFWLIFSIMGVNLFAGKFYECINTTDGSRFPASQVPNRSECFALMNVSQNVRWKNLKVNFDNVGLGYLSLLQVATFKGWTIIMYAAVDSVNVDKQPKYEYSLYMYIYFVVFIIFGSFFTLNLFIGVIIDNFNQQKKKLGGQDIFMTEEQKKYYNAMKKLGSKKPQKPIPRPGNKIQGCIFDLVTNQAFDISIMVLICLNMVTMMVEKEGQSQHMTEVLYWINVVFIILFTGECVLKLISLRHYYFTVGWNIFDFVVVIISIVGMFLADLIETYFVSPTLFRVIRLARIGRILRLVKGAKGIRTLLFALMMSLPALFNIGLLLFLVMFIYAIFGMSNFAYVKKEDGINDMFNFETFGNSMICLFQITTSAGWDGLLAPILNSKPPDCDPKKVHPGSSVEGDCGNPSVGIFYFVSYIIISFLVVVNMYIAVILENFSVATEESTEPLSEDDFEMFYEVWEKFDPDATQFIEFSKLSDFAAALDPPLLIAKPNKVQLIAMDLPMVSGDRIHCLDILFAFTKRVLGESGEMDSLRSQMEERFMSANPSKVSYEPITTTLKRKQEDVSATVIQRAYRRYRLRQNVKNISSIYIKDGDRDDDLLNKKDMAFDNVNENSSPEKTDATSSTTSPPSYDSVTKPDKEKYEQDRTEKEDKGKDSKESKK

SMILES | IC50 [nM]
COc1ccc(-c2ccc(Cl)c(C)c2)cc1-n1c(=O)ccc2cc(S(=O)(=O)Nc3ccon3)ccc21 [Example 846, 1-(4′-chloro-4-methoxy-3′-methyl-3-biphenylyl)-N-3-isoxazolyl-2-oxo-1,2-dihydro-6-quinolinesulfonamide] | 25
COc1ccc(Br)cc1-n1c(=O)ccc2cc(S(=O)(=O)Nc3ccon3)ccc21 [Example 851, 1-(5-bromo-2-methoxyphenyl)-N-3-isoxazolyl-2-oxo-1,2-dihydro-6-quinolinesulfonamide] | 371
COc1cc(F)cc(-c2ccc(OC)c(-n3c(=O)ccc4cc(S(=O)(=O)Nc5ccon5)ccc43)c2)c1 [Example 853, 1-(3′-fluoro-4,5′-dimethoxy-3-biphenylyl)-N-3-isoxazolyl-2-oxo-1,2-dihydro-6-quinolinesulfonamide] | 60
COc1ccc(-c2ccc(C(F)(F)F)cc2)cc1-n1c(=O)ccc2cc(S(=O)(=O)Nc3ccon3)ccc21 [Example 856, N-3-isoxazolyl-1-(4-methoxy-4′-(trifluoromethyl)-3-biphenylyl)-2-oxo-1,2-dihydro-6-quinolinesulfonamide] | 35
COc1ccc(-c2cc(F)cc(Cl)c2)cc1-n1c(=O)ccc2cc(S(=O)(=O)Nc3cnccn3)ccc21 [Example 860, 1-(3′-chloro-5′-fluoro-4-methoxy-3-biphenylyl)-2-oxo-N-2-pyrazinyl-1,2-dihydro-6-quinolinesulfonamide] | 251
COc1ccc(-c2cc(F)cc(Cl)c2)cc1-n1c(=O)ccc2cc(S(=O)(=O)Nc3cccnn3)ccc21 [Example 861, 1-(3′-chloro-5′-fluoro-4-methoxy-3-biphenylyl)-2-oxo-N-3-pyridazinyl-1,2-dihydro-6-quinolinesulfonamide] | 38
COc1ccc(-c2cc(F)cc(Cl)c2)cc1-n1c(=O)ccc2cc(S(=O)(=O)Nc3ncco3)ccc21 [Example 864, 1-(3′-chloro-5′-fluoro-4-methoxy-3-biphenylyl)-N-1,3-oxazol-2-yl-2-oxo-1,2-dihydro-6-quinolinesulfonamide] | 43
COc1ccc(-c2cc(C)cc(Cl)c2)cc1-n1c(=O)ccc2cc(S(=O)(=O)Nc3ccon3)ccc21 [Example 867, 1-(3′-chloro-4-methoxy-5′-methyl-3-biphenylyl)-N-3-isoxazolyl-2-oxo-1,2-dihydro-6-quinolinesulfonamide] | 16
COc1cc(-c2ccc(OC)c(-n3c(=O)ccc4cc(S(=O)(=O)Nc5ccon5)ccc43)c2)ccc1Cl [Example 870, 1-(4′-chloro-3′,4-dimethoxy-3-biphenylyl)-N-3-isoxazolyl-2-oxo-1,2-dihydro-6-quinolinesulfonamide] | 23
COc1cc(-c2ccc(Cl)c(C#N)c2)c(F)cc1-n1c(=O)ccc2cc(S(=O)(=O)Nc3ncccn3)ccc21 [Example 871, 1-(4′-chloro-3′-cyano-2-fluoro-5-methoxy-4-biphenylyl)-2-oxo-N-2-pyrimidinyl-1,2-dihydro-6-quinolinesulfonamide] | 44
COc1ccc(-c2cc(F)cc(Cl)c2)cc1-n1c(=O)ccc2cc(S(=O)(=O)Nc3cnccn3)ccc21 [Example 876, 1-(3′-chloro-5′-fluoro-4-methoxy-3-biphenylyl)-2-oxo-N-2-pyrazinyl-1,2-dihydro-6-quinolinesulfonamide] | 206
COc1ccc(-c2ccc(OC)c(-n3c(=O)ccc4cc(S(=O)(=O)Nc5ccon5)ccc43)c2)cc1Cl [Example 884, 1-(3′-chloro-4,4′-dimethoxy-3-biphenylyl)-N-3-isoxazolyl-2-oxo-1,2-dihydro-6-quinolinesulfonamide] | 35
COc1cc(-c2ccc(Cl)c(C#N)c2)c(F)cc1-n1c(=O)ccc2cc(S(=O)(=O)Nc3ncco3)ccc21 [Example 890, 1-(4′-chloro-3′-cyano-2-fluoro-5-methoxy-4-biphenylyl)-N-1,3-oxazol-2-yl-2-oxo-1,2-dihydro-6-quinolinesulfonamide] | 84
COc1cc(-c2ccc(Cl)c(C#N)c2)c(F)cc1-n1c(=O)ccc2cc(S(=O)(=O)Nc3ccnc(C)n3)ccc21 [Example 892, 1-(4′-chloro-3′-cyano-2-fluoro-5-methoxy-4-biphenylyl)-N-(2-methyl-4-pyrimidinyl)-2-oxo-1,2-dihydro-6-quinolinesulfonamide] | 51
COc1cc(-c2ccc(Cl)c(C#N)c2)c(F)cc1-n1c(=O)ccc2cc(S(=O)(=O)Nc3ncc(F)cn3)ccc21 [Example 893, 1-(4′-chloro-3′-cyano-2-fluoro-5-methoxy-4-biphenylyl)-N-(5-fluoro-2-pyrimidinyl)-2-oxo-1,2-dihydro-6-quinolinesulfonamide] | 13
COc1cc(-c2ccc(F)c(F)c2)ccc1-n1c(=O)ccc2cc(S(=O)(=O)Nc3ncco3)ccc21 [Example 894, 1-(3′,4′-difluoro-3-methoxy-4-biphenylyl)-N-1,3-oxazol-2-yl-2-oxo-1,2-dihydro-6-quinolinesulfonamide] | 83

The remaining lines, values ahead:

IC50 [nM] | SMILES
403 | COc1cccc(-c2ccc(OC)c(-n3c(=O)ccc4cc(S(=O)(=O)Nc5ccon5)ccc43)c2)c1 [Example 847, 1-(3′,4-dimethoxy-3-biphenylyl)-N-3-isoxazolyl-2-oxo-1,2-dihydro-6-quinolinesulfonamide]
118 | COc1ccc(-c2cccc(F)c2F)cc1-n1c(=O)ccc2cc(S(=O)(=O)Nc3ccon3)ccc21 [Example 848, 1-(2′,3′-difluoro-4-methoxy-3-biphenylyl)-N-3-isoxazolyl-2-oxo-1,2-dihydro-6-quinolinesulfonamide]
141 | COc1ccc(-c2ccccc2C(F)(F)F)cc1-n1c(=O)ccc2cc(S(=O)(=O)Nc3ccon3)ccc21 [Example 850, N-3-isoxazolyl-1-(4-methoxy-2′-(trifluoromethyl)-3-biphenylyl)-2-oxo-1,2-dihydro-6-quinolinesulfonamide]
22 | COc1ccc(-c2cccc(Cl)c2)cc1-n1c(=O)ccc2cc(S(=O)(=O)Nc3ccon3)ccc21 [Example 852, 1-(3′-chloro-4-methoxy-3-biphenylyl)-N-3-isoxazolyl-2-oxo-1,2-dihydro-6-quinolinesulfonamide]
20 | COc1ccc(-c2ccc(Cl)cc2)cc1-n1c(=O)ccc2cc(S(=O)(=O)Nc3ccon3)ccc21 [Example 857, 1-(4′-chloro-4-methoxy-3-biphenylyl)-N-3-isoxazolyl-2-oxo-1,2-dihydro-6-quinolinesulfonamide]
25 | COc1ccc(-c2cc(F)cc(Cl)c2)cc1-n1c(=O)ccc2cc(S(=O)(=O)Nc3ccon3)ccc21 [Example 858, 1-(3′-chloro-5′-fluoro-4-methoxy-3-biphenylyl)-N-3-isoxazolyl-2-oxo-1,2-dihydro-6-quinolinesulfonamide]
675 | COc1ccc(-c2cc(F)cc(Cl)c2)cc1-n1c(=O)ccc2cc(S(=O)(=O)Nc3ccon3)ccc21 [Example 859, 1-(3′-chloro-5′-fluoro-4-methoxy-3-biphenylyl)-N-3-isoxazolyl-2-oxo-1,2-dihydro-6-quinolinesulfonamide]
53 | COc1ccc(-c2cc(F)cc(F)c2)cc1-n1c(=O)ccc2cc(S(=O)(=O)Nc3ccon3)ccc21 [Example 865, 1-(3′,5′-difluoro-4-methoxy-3-biphenylyl)-N-3-isoxazolyl-2-oxo-1,2-dihydro-6-quinolinesulfonamide]
11600 | COc1ccc(-c2ccc(Cl)c(C)c2)cc1-n1c(=O)ccc2cc(S(=O)(=O)Nc3ccon3)ccc21 [Example 872, 1-(4′-chloro-4-methoxy-3′-methyl-3-biphenylyl)-N-3-isoxazolyl-2-oxo-1,2-dihydro-6-quinolinesulfonamide]
33 | COc1ccc(-c2ccc(Cl)c(F)c2)cc1-n1c(=O)ccc2cc(S(=O)(=O)Nc3ccon3)ccc21 [Example 874, 1-(4′-chloro-3′-fluoro-4-methoxy-3-biphenylyl)-N-3-isoxazolyl-2-oxo-1,2-dihydro-6-quinolinesulfonamide]
15 | COc1ccc(-c2ccc(Cl)c(C)c2)cc1-n1c(=O)ccc2cc(S(=O)(=O)Nc3ccon3)ccc21 [Example 875, 1-(4′-chloro-4-methoxy-3′-methyl-3-biphenylyl)-N-3-isoxazolyl-2-oxo-1,2-dihydro-6-quinolinesulfonamide]
21 | COc1ccc(-c2ccc(F)c(C)c2)cc1-n1c(=O)ccc2cc(S(=O)(=O)Nc3ccon3)ccc21 [Example 878, 1-(4′-fluoro-4-methoxy-3′-methyl-3-biphenylyl)-N-3-isoxazolyl-2-oxo-1,2-dihydro-6-quinolinesulfonamide]
32 | COc1ccc(-c2cc(Cl)ccc2F)cc1-n1c(=O)ccc2cc(S(=O)(=O)Nc3ccon3)ccc21 [Example 880, 1-(5′-chloro-2′-fluoro-4-methoxy-3-biphenylyl)-N-3-isoxazolyl-2-oxo-1,2-dihydro-6-quinolinesulfonamide]
12 | COc1ccc(-c2ccc(C)c(Cl)c2)cc1-n1c(=O)ccc2cc(S(=O)(=O)Nc3ccon3)ccc21 [Example 885, 1-(3′-chloro-4-methoxy-4′-methyl-3-biphenylyl)-N-3-isoxazolyl-2-oxo-1,2-dihydro-6-quinolinesulfonamide]
30 | COc1ccc(-c2cccc(Cl)c2F)cc1-n1c(=O)ccc2cc(S(=O)(=O)Nc3ccon3)ccc21 [Example 887, 1-(3′-chloro-2′-fluoro-4-methoxy-3-biphenylyl)-N-3-isoxazolyl-2-oxo-1,2-dihydro-6-quinolinesulfonamide]
184 | COc1cc(-c2ccc(OC)c(-n3c(=O)ccc4cc(S(=O)(=O)Nc5ccon5)ccc43)c2)ccc1F [Example 889, 1-(4′-fluoro-3′,4-dimethoxy-3-biphenylyl)-N-3-isoxazolyl-2-oxo-1,2-dihydro-6-quinolinesulfonamide]
20 | COc1ccc(-c2cccc(Cl)c2C)cc1-n1c(=O)ccc2cc(S(=O)(=O)Nc3ccon3)ccc21 [Example 891, 1-(3′-chloro-4-methoxy-2′-methyl-3-biphenylyl)-N-3-isoxazolyl-2-oxo-1,2-dihydro-6-quinolinesulfonamide]
1840 | COc1ccc(-c2cccc(Cl)c2C)cc1-n1c(=O)ccc2cc(S(=O)(=O)Nc3ccon3)ccc21 [Example 895, 1-(3′-chloro-4-methoxy-2′-methyl-3-biphenylyl)-N-3-isoxazolyl-2-oxo-1,2-dihydro-6-quinolinesulfonamide]
